Experimental data: patent US20240043439A1, “COMPOUNDS AS C5AR INHIBITORS” (Kira Pharmaceuticals (Suzhou) Ltd., priority 2020, published 2024)

Assays:
C5aR [1] = target: T1, C5aR (Homo sapiens (Human), UniProt P21730); test: Inhibition of C5a-C5aR binding determined by cell migration assay (U937/C5aR cells); assay type: cell-based; conditions: U937/C5aR cell migration towards human C5a, 180 min
Experimental: Migration assay was performed by using polycarbonate membrane with 3.0 µm pore (Corning). U937/C5aR cells were collected and washed twice by PBS; cells were suspended in Hank's balanced salt solution (HBSS)+1% FBS buffer at the density of 6×10^6 cells/ml. Cells were premixed with compound and added to insert well, ligand human C5a and compound were added to bottom well in order, gently mix, incubate for 30 min at 37° C., […]. Put insert plate into bottom well, migrate for 180 min at 37° C., […]. Gently remove the insert well, add 50 μl CellTiter-Glo (Promega), gently shaking for 5 min at room temperature, transfer 150 μl mixture to black plate and read luminescence intensity by
microplate reader (BioTek).

[2] = target: human C5a receptor (C5aR) (Homo sapiens (Human), UniProt P21730); test: Inhibition of C5a-C5aR binding (biotinylated human C5a, U937/C5aR cells, FACS)
Chain of human C5a receptor (C5aR) (P21730 whole entry): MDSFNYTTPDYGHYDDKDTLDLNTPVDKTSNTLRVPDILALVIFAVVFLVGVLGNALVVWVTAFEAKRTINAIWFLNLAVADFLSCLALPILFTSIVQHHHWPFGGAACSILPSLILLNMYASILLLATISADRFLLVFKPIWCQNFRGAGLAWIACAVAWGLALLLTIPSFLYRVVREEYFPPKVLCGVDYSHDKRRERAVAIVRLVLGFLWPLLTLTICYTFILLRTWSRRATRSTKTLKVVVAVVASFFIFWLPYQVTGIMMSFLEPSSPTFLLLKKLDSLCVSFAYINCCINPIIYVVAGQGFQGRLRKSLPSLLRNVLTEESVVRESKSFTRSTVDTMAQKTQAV
Summary of the method: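 Binding read by flow cytometry as FITC-streptavidin signal (30 min on ice) on washed cells after a 120 min on-ice incubation of compound with biotinylated human C5a (30 nM working solution). Cells used were C5aR-transfected U937, suspended at 3×10^6 cells/ml in PBS containing 0.1% BSA.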

C5aR [3] = target: T1, C5aR; test: Calcium mobilization (U937/C5aR or HEK293/C5aR cells, FLIPR); assay type: cell-based; conditions: agonist human C5a at EC80, FLIPR
Summary of the method: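 FLIPR calcium-flux read-out using Fluo-4 Direct-loaded C5aR-expressing U937 or HEK293 cells stimulated with human C5a at its EC80. Compound was applied for 60 min before dye loading (50 min at 37 °C plus 10 min at room temperature) and agonist addition.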

T1 sequence (P21730 whole entry): as above

IC50 (C5aR [1])	IC50 [2]	IC50 (C5aR [3])	SMILES
50 to 500 nM	50 to 500 nM	50 to 500 nM	Cc1cccc(F)c1C(=O)N1C2CCC[C@@H]2C[C@H](C(=O)Nc2ccc3cccnc3c2)[C@@H]1c1ccc(NC2CCCC2)cc1 (mixture of isomers) [Compound 73, cis-2-(4-(cyclopentylamino)phenyl)-1-(2-fluoro-6-methylbenzoyl)-N-(quinolin-7-yl)octahydro-1H-cyclopenta[b]pyridine-3-carboxamide]
50 to 500 nM	50 to 500 nM	500 to 2000 nM	Cc1cccc(F)c1C(=O)N1[C@@H]2CCC[C@@H]2C[C@H](C(=O)Nc2ccc3cnn(C4COC4)c3c2)[C@@H]1c1ccc(NC2CCCC2)cc1 (racemic) [Compound 59, cis-2-(4-(cyclopentylamino)phenyl)-1-(2-fluoro-6-methylbenzoyl)-N-(1-(oxetan-3-yl)-1H-indazol-6-yl)octahydro-1H-cyclopenta[b]pyridine-3-carboxamide]
50 to 500 nM	50 to 500 nM	50 to 500 nM	Cc1ccc(NC(=O)[C@H]2C[C@H]3CCC[C@H]3N(C(=O)c3c(C)cccc3F)[C@H]2c2ccc(NC3CCCC3)cc2)cc1C#N (racemic) [Compound 62, cis-N-(3-cyano-4-methylphenyl)-2-(4-(cyclopentylamino)phenyl)-1-(2-fluoro-6-methylbenzoyl)octahydro-1H-cyclopenta[b]pyridine-3-carboxamide]
50 to 500 nM	< 50 nM	50 to 500 nM	Cc1cccc(F)c1C(=O)N1[C@@H]2CCC[C@@H]2C[C@H](C(=O)Nc2ccc3ncoc3c2)[C@@H]1c1ccc(NC2CCCC2)cc1 (racemic) [Compound 67, cis-N-(benzo[d]oxazol-6-yl)-2-(4-(cyclopentylamino)phenyl)-1-(2-fluoro-6-methylbenzoyl)octahydro-1H-cyclopenta[b]pyridine-3-carboxamide]
500 to 2000 nM	500 to 2000 nM	2000 to 10000 nM	Cc1cccc(F)c1C(=O)N1[C@@H]2CCC[C@@H]2C[C@H](C(=O)Nc2cccc(S(C)(=O)=O)c2)[C@@H]1c1ccc(NC2CCCC2)cc1 (racemic) [Compound 70, cis-2-(4-(cyclopentylamino)phenyl)-1-(2-fluoro-6-methylbenzoyl)-N-(3-(methylsulfonyl)phenyl)octahydro-1H-cyclopenta[b]pyridine-3-carboxamide]
50 to 500 nM	500 to 2000 nM	2000 to 10000 nM	Cc1ccc(NC(=O)[C@H]2CC[C@@H]3CCc4cccc(F)c4C(=O)N3C2c2ccc(NC3CCCC3)cc2)cc1C(F)(F)F (relative stereo) [Compound 41, cis-4-(4-(cyclopentylamino)phenyl)-7-fluoro-N-(4-methyl-3-(trifluoromethyl)phenyl)-6-oxo-1,2,3,4,6,11,12,12a-octahydrobenzo[e]pyrido[1,2-a]azepine-3-carboxamide]
50 to 500 nM	50 to 500 nM	50 to 500 nM	Cc1cccc(F)c1C(=O)N1C2CCC[C@@H]2C[C@H](C(=O)Nc2cccc(C(F)(F)F)c2)[C@@H]1c1ccc(NC2CCCC2)cc1 (relative stereo) [Compound 46, cis-2-(4-(cyclopentylamino)phenyl)-1-(2-fluoro-6-methylbenzoyl)-N-(3-(trifluoromethyl)phenyl)octahydro-1H-cyclopenta[b]pyridine-3-carboxamide]
50 to 500 nM	50 to 500 nM	2000 to 10000 nM	Cc1cccc(F)c1C(=O)N1C2CCC[C@@H]2C[C@H](C(=O)Nc2cccnc2)[C@@H]1c1ccc(NC2CCCC2)cc1 (relative stereo) [Compound 57, cis-2-(4-(cyclopentylamino)phenyl)-1-(2-fluoro-6-methylbenzoyl)-N-(pyridin-3-yl)octahydro-1H-cyclopenta[b]pyridine-3-carboxamide]
50 to 500 nM	50 to 500 nM	50 to 500 nM	Cc1cccc(F)c1C(=O)N1C2CCC[C@@H]2C[C@H](C(=O)Nc2ccc3cccnc3c2)[C@@H]1c1ccc(NC2CCOCC2)cc1 (relative stereo) [Compound 90, cis-1-(2-fluoro-6-methylbenzoyl)-N-(quinolin-7-yl)-2-(4-((tetrahydro-2H-pyran-4-yl)amino)phenyl)octahydro-1H-cyclopenta[b]pyridine-3-carboxamide]
50 to 500 nM	50 to 500 nM	2000 to 10000 nM	Cc1ccc(NC(=O)C2C[C@H]3CCC[C@H]3N(C(=O)C3CCOCC3)[C@H]2c2ccc(NC3CCCC3)cc2)cc1C(F)(F)F (relative stereo) [Compound 111, cis-2-(4-(cyclopentylamino)phenyl)-N-(4-methyl-3-(trifluoromethyl)phenyl)-1-(tetrahydro-2H-pyran-4-carbonyl)octahydro-1H-cyclopenta[b]pyridine-3-carboxamide]
50 to 500 nM	< 50 nM	> 10000 nM	Cc1ccc(NC(=O)C2C[C@H]3CCC[C@H]3N(C(=O)c3cscn3)C2c2ccc(NC3CCCC3)cc2)cc1C(F)(F)F (relative stereo) [Compound 114, cis-2-(4-(cyclopentylamino)phenyl)-N-(4-methyl-3-(trifluoromethyl)phenyl)-1-(thiazole-4-carbonyl)octahydro-1H-cyclopenta[b]pyridine-3-carboxamide]
50 to 500 nM	50 to 500 nM	> 10000 nM	Cc1ccc(NC(=O)C2C[C@H]3CCC[C@H]3N(C(=O)c3cncnc3)C2c2ccc(NC3CCCC3)cc2)cc1C(F)(F)F (relative stereo) [Compound 115, cis-2-(4-(cyclopentylamino)phenyl)-N-(4-methyl-3-(trifluoromethyl)phenyl)-1-(pyrimidine-5-carbonyl)octahydro-1H-cyclopenta[b]pyridine-3-carboxamide]
> 5000 nM	–	2000 to 10000 nM	Cc1ccc(NC(=O)[C@H]2CCCN(S(=O)(=O)c3c(F)c(F)c(F)c(F)c3F)[C@H]2c2ccc(NC3CCCC3)cc2)cc1C(F)(F)F [Compound 37, (2R,3S)-2-(4-(cyclopentylamino)phenyl)-N-(4-methyl-3-(trifluoromethyl)phenyl)-1-((perfluorophenyl)sulfonyl)piperidine-3-carboxamide]
2000 to 5000 nM	–	2000 to 10000 nM	Cc1ccc(NC(=O)[C@H]2CCCN(c3nccc4cccnc34)[C@H]2c2ccc(N(C(=O)OCc3ccccc3)C3CCCC3)cc2)cc1C(F)(F)F [Compound 164, benzyl cyclopentyl(4-((2R,3S)-3-((4-methyl-3-(trifluoromethyl)phenyl)carbamoyl)-1-(1,7-naphthyridin-8-yl)piperidin-2-yl)phenyl)carbamate]
> 5000 nM	–	2000 to 10000 nM	Cc1ccc(NC(=O)[C@H]2CCCN[C@H]2c2ccc(N(c3nccc4cccnc34)C3CCCC3)cc2)cc1C(F)(F)F [Compound 168, (2R,3S)-2-(4-(cyclopentyl(1,7-naphthyridin-8-yl)amino)phenyl)-N-(4-methyl-3-(trifluoromethyl)phenyl)piperidine-3-carboxamide]
> 5000 nM	–	2000 to 10000 nM	Cc1cccc(F)c1C(=O)N1CCC[C@H](c2nc3cc(C(C)(C)C)ccc3o2)[C@@H]1c1ccc(NC2CCCC2)cc1 [Compound 181, ((2R,3S)-3-(5-(tert-butyl)benzo[d]oxazol-2-yl)-2-(4-(cyclopentylamino)phenyl)piperidin-1-yl)(2-fluoro-6-methylphenyl)methanone]

SMILES	IC50 (C5aR [1])	IC50 [2]	IC50 (C5aR [3])
Cc1cccc(F)c1C(=O)N1C(c2ccc(NC3CCCC3)cc2)C(C(=O)Nc2ccc3c(c2)CCN(C)C3)C[C@@H]2CCC[C@@H]21 (relative stereo) [Compound 77, cis-2-(4-(cyclopentylamino)phenyl)-1-(2-fluoro-6-methylbenzoyl)-N-(2-methyl-1,2,3,4-tetrahydroisoquinolin-6-yl)octahydro-1H-cyclopenta[b]pyridine-3-carboxamide]	> 5000 nM	2000 to 5000 nM	2000 to 10000 nM
Cc1cccc(F)c1C(=O)N1C(c2ccc(NC3CCCC3)cc2)C(C(=O)Nc2cnc3cnn(C)c3c2)C[C@@H]2CCC[C@@H]21 (relative stereo) [Compound 78, cis-2-(4-(cyclopentylamino)phenyl)-1-(2-fluoro-6-methylbenzoyl)-N-(1-methyl-1H-pyrazolo[4,3-b]pyridin-6-yl)octahydro-1H-cyclopenta[b]pyridine-3-carboxamide]	50 to 500 nM	50 to 500 nM	500 to 2000 nM
Cc1ccc(NC(=O)C2C[C@@H]3CCC[C@@H]3N(C(=O)c3c(C)cccc3F)C2c2ccc(NC3CCOCC3)cc2)cc1C(F)(F)F (relative stereo) [Compound 88, cis-1-(2-fluoro-6-methylbenzoyl)-N-(4-methyl-3-(trifluoromethyl)phenyl)-2-(4-((tetrahydro-2H-pyran-4-yl)amino)phenyl)octahydro-1H-cyclopenta[b]pyridine-3-carboxamide]	< 50 nM	50 to 500 nM	< 50 nM
Cc1ccc(NC(=O)C2C[C@@H]3CCC[C@@H]3N(C(=O)c3cocn3)C2c2ccc(NC3CCCC3)cc2)cc1C(F)(F)F (relative stereo) [Compound 110, cis-2-(4-(cyclopentylamino)phenyl)-N-(4-methyl-3-(trifluoromethyl)phenyl)-1-(oxazole-4-carbonyl)octahydro-1H-cyclopenta[b]pyridine-3-carboxamide]	50 to 500 nM	50 to 500 nM	> 10000 nM
